These results are taken from ChEMBL document CHEMBL1201862, “PubChem BioAssay data set” (2004).

The target of experiment [1] is T1, Fatty acid synthase (Homo sapiens, UniProt P49327). In words: FAS thioesterase domain inhibitors, dose response, biochemical, endpoint fluorescence intensity, uHTS hits (AID 624327).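 Note: fluorescence from hydrolysis of an O-methyl fluorescein acyl ester substrate by the enzyme.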 The experiment is classed as functional.
The target in experiment [2] is T1, Fatty acid synthase. In words: FAS thioesterase domain inhibitors, dose response, biochemical, kinetic fluorescence intensity (AID 624326).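 Note: rate of fluorescence rise from hydrolysis of a fluorogenic O-methyl fluorescein ester substrate.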 It is filed as functional.
The nature of experiment [3]: HEp-2 cell cytotoxicity, dose response, cytotoxicity control for RSV inhibitor project, HTS (AID 2410). The experiment is classed as functional. Particulars: human respiratory syncytial virus.
The nature of experiment [4]: NIH-3T3 fibroblast cytotoxicity, dose response, cytotoxicity control, cell-based, fluorescence, Alamar Blue, secondary assay (AID 2327).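 Note: NIH-3T3 mouse fibroblasts cultured with fluconazole at 8 µg/mL.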 The experiment is classed as functional.
A short description of experiment [5]: C. albicans growth with fluconazole, confirmation, fluorescence, retest (AID 2467). The experiment is classed as functional, cell-based.
Experiment [6] deals with T2, Cytochrome P450 1A2 (Homo sapiens, UniProt P05177).
T2 sequence (P05177 whole entry): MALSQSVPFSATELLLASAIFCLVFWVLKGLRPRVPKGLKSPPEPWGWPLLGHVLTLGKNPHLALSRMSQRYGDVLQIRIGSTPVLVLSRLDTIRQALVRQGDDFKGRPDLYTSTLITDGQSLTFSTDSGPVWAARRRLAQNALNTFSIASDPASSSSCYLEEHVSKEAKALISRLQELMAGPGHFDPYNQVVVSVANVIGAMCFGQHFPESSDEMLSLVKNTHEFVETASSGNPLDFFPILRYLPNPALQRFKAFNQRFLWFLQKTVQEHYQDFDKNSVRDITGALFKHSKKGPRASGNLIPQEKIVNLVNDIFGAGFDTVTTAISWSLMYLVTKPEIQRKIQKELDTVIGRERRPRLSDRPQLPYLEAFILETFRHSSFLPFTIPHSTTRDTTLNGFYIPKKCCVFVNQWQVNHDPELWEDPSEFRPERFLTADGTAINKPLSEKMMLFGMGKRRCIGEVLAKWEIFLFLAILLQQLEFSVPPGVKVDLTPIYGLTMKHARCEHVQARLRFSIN

Experiment [7] concerns the target Cytochrome P450 2D6 (Homo sapiens, UniProt P10635).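 Note: CYP2D6 member of a cytochrome P450 panel assay.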
Experiment [8] has as its target Cytochrome P450 3A4 (Homo sapiens, UniProt P08684).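 Note: CYP3A4 tested as one member of a cytochrome P450 panel screen.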
A short description of experiment [9]: cytotoxicity toward NIH3T3 fibroblasts, dose response, counter-screen, cell-based, ATP luminescence, mouse fibroblasts (AID 2010).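 Note: cells exposed to compound for about 90 hours before reading.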 It is filed as functional.
A short description of experiment [10]: inhibitors of intracellular T. cruzi replication, confirmation, NIH3T3 host cells, beta-gal luminescence (AID 2044).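 Note: intracellular parasites grown in NIH/3T3 mouse fibroblasts as host cells; luminescent beta-galactosidase reporter signal from transgenic T. cruzi replicating inside host cells; inhibitors lower the luminescence signal.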 It is filed as functional, cell-based.
The target of experiment [11] is Cytochrome P450 2C9 (Homo sapiens, UniProt P11712).
Sequence of Cytochrome P450 2C9 (P11712 whole entry): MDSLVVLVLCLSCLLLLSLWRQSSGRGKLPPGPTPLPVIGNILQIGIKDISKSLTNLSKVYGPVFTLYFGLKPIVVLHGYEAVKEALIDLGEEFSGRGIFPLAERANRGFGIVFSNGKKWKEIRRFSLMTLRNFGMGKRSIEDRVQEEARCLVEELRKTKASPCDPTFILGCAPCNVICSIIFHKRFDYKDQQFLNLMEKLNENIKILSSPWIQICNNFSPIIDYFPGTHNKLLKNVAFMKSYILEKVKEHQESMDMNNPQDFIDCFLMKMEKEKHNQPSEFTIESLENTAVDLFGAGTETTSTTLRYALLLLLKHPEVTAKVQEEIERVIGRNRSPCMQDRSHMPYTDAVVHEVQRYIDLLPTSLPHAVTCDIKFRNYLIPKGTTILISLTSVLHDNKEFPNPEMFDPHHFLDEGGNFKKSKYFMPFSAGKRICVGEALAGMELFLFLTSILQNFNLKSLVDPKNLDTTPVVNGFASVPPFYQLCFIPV
Experiment [12] has as its target Cytochrome P450 2C19 (Homo sapiens, UniProt P33261). In words: Cytochrome panel assay with activity outcomes. Panel member name: p450-cyp2c19 Compounds with AC50 equal or less than 10 uM are considered active. It is filed as functional. The following applies: read-out: AC50.
Experiment [13] in a line: Luminescence Cell-Based Dose Response HTS to Identify Activators of Luciferase Translation or Activity in H4 […] Cells. [Related pubchem assays: 1829 (Project Summary), 1814 (Primary HTS)]. It is filed as functional.
The test system of experiment [14] is H4. In words: Luminescence Cell-Based Dose Response HTS to Identify Activators of 5'UTR Stem-Loop Driven Prion Protein mRNA Translation in H4 Neuroglioblastoma Cells. [Related pubchem assays: 1829 (Project Summary), 1814 (Primary HTS)]. The following applies: Homo sapiens. The experiment is classed as functional.
The target of experiment [15] is T3, Streptokinase A (Streptococcus pyogenes serotype M1, UniProt P10520).
T3 sequence (P10520 whole entry): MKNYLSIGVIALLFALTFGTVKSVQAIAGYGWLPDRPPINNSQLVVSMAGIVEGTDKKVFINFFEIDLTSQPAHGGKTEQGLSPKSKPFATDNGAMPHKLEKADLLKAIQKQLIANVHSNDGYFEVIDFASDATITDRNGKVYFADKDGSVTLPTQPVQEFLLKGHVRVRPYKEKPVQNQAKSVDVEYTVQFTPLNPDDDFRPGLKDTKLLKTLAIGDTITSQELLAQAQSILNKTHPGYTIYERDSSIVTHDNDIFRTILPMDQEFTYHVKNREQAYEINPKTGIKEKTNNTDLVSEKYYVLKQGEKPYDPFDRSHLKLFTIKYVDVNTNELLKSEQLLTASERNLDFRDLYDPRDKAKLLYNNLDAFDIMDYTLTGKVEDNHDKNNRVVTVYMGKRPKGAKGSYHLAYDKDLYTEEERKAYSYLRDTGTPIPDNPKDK
In words: S. pyogenes streptokinase expression inhibitors, potency, dose response, plasminogen activation absorbance, OD405 (AID 1914).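 Note: secreted streptokinase activity via plasminogen activation per viability signal from cell pellet.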 It is filed as functional, Streptococcus pyogenes M1 GAS.

Experiment [16] concerns Streptococcus. In words: Group A Streptococcus viability loss, dose response, counter-screen for streptokinase expression inhibitor project, luminescence, BacTiterGlo (AID 1915).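 Note: potency for reduction of bacterial viability or growth.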 It is filed as functional, organism-based.
Experiment [17] relates to Streptococcus sp. 'group A'. In words: growth inhibition of control SK(-) GAS strain, dose response, counter-screen for streptokinase expression inhibitor project, luminescence, kanamycin, BacTiterGlo, confirmation (AID 1900). The experiment is classed as functional, organism-based.

Calls of active or inactive are those of the source.

Sequence of Cytochrome P450 3A4 (P08684 whole entry): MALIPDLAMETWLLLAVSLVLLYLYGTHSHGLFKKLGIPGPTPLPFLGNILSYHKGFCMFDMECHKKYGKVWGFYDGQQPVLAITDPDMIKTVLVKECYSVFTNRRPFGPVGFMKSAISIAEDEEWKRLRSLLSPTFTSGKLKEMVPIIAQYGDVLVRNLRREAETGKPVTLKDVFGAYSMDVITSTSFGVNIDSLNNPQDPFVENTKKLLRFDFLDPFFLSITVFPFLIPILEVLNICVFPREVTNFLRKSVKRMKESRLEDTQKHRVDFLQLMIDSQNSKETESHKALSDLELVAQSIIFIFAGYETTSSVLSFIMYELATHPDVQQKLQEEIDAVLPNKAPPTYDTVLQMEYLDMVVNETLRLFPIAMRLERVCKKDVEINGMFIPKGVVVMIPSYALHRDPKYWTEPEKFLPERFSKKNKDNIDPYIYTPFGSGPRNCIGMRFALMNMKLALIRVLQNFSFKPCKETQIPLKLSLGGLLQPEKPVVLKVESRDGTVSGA
T1 sequence (P49327 whole entry, the tested form may be a part): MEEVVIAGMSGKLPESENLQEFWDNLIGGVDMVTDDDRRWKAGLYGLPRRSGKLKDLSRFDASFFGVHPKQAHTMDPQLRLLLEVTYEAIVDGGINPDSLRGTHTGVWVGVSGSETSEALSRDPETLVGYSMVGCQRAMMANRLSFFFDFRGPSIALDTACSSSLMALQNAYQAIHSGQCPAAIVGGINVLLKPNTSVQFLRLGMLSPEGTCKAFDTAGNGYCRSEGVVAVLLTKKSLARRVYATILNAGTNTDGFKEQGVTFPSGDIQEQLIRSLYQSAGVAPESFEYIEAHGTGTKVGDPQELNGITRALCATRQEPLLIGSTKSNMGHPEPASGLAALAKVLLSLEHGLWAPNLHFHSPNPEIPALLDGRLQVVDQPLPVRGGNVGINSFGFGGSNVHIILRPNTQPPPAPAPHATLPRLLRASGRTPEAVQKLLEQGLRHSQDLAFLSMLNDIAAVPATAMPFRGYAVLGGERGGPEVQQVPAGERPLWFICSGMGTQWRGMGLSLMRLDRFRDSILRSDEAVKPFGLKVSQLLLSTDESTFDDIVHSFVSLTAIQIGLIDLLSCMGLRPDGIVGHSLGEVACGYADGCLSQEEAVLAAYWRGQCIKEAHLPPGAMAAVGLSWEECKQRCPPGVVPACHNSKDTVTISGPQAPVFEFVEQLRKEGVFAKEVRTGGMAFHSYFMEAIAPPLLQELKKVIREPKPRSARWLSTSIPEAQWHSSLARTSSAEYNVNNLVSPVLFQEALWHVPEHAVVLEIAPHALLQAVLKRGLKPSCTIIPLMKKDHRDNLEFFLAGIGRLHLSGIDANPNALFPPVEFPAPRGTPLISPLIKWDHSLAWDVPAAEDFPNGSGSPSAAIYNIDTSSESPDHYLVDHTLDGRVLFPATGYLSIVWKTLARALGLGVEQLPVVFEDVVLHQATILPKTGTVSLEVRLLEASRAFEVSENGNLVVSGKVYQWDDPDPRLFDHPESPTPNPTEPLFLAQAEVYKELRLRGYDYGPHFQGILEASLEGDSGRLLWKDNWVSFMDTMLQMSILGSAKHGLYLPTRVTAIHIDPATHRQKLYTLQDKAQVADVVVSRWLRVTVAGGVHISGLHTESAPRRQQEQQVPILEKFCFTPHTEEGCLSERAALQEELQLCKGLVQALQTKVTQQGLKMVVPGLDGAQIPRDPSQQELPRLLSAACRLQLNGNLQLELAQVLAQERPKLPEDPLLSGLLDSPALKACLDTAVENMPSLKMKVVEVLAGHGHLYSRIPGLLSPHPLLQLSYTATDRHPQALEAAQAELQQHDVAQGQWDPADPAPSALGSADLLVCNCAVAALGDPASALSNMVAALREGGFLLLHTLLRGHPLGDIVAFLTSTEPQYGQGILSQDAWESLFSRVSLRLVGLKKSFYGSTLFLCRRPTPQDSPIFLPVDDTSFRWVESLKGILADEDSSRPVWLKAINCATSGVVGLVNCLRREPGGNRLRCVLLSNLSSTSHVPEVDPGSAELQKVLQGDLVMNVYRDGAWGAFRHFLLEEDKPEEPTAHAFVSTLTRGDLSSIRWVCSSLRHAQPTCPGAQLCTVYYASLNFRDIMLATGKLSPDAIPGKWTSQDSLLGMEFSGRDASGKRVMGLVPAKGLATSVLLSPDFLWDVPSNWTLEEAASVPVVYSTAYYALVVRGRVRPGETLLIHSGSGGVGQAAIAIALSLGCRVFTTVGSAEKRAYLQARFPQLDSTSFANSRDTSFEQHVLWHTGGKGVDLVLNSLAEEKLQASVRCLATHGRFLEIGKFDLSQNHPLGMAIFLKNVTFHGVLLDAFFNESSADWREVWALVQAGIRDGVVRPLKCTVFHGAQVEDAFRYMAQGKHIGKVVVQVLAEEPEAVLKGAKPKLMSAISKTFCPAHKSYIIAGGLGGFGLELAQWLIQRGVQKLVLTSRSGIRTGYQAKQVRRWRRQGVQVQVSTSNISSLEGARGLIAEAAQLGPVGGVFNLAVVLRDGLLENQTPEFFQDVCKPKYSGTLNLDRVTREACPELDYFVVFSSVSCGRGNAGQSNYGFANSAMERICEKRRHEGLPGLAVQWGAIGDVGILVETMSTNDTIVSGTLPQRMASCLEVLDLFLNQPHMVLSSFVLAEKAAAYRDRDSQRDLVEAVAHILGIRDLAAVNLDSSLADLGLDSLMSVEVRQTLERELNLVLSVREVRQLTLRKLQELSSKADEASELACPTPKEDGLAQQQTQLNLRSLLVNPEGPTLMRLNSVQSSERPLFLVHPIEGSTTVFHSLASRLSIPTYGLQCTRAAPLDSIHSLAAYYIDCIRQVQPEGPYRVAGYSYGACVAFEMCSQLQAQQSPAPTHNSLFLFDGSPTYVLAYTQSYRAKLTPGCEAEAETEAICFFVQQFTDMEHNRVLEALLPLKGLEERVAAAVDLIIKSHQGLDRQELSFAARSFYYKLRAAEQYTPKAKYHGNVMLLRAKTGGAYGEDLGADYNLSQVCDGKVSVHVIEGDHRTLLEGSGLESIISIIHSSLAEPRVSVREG
Sequence of Cytochrome P450 2C19 (P33261 whole entry): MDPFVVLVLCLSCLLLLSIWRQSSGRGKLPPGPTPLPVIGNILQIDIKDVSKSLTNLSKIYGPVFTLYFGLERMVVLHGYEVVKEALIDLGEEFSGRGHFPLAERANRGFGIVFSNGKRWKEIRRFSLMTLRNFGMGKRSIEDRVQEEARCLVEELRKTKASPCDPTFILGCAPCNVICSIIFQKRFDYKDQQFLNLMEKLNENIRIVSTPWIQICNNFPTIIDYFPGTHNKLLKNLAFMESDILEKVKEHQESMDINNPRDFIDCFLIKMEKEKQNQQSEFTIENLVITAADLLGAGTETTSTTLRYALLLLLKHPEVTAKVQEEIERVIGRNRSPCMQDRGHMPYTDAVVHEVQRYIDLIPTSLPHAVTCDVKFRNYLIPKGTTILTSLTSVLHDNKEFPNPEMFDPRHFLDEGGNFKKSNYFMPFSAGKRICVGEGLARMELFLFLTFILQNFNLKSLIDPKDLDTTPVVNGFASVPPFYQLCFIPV
Sequence of Cytochrome P450 2D6 (P10635 whole entry): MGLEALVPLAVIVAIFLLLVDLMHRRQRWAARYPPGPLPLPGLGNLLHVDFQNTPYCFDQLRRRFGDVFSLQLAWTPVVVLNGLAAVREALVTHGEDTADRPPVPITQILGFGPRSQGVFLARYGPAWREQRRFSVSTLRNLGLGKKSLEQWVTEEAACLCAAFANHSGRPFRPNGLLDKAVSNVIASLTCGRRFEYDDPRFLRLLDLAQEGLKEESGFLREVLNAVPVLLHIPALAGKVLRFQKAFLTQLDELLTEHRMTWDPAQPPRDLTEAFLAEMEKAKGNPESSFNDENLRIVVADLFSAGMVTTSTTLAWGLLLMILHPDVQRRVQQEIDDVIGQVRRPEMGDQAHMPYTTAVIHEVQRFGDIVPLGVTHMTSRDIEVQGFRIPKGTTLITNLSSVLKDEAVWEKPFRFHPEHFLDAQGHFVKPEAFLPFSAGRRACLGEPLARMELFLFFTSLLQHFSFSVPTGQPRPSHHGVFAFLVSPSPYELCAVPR

Take `CC1CCc2c(C(=O)Oc3cccc(-n4cnnn4)c3)csc2C1` (centres undefined): the IC50 was 1.71 µM (active) in experiment [1] and 1.36 µM (active) in experiment [2].

As to `C/C(=N\NC(=O)COc1ccc(C)cc1C(C)C)c1ccc(-n2ccnc2)cc1`, the CC50 in experiment [3] was 24.3 µM (active).

Take `Cc1ccccc1N(C(=O)Cn1nnc(-c2cccs2)n1)C(C(=O)NCCC(C)C)c1ccco1` (centres undefined): the CC50 in [3] was 40.4 µM (active).

Take `O=C(/C=C/c1cccc([N+](=O)[O-])c1)N1CCN(c2ccc(F)cc2)CC1`: the IC50 in experiment [1] is 2.32 µM (active); in experiment [2] it was 4.93 µM (active).

As to `CCCNC(=O)C12CCC(C)(c3nc4cc(C)c(C)cc4nc31)C2(C)C` (centres undefined), the EC50 in [4] is 113 µM (active).

For `COc1cccc2c1Oc1ncccc1N(C(=O)CCC(=O)NCc1ccccc1F)C2`, the EC50 in [5] is > 38 µM (not active); in experiment [4], 19.4 µM (inconclusive).

Consider `O=C(NNc1ccc([N+](=O)[O-])cc1)c1ccccc1Cl`, for which the EC50 in experiment [5] is > 38 µM (not active); in experiment [4], > 150 µM (inactive).

As to `Cc1ccccc1Cn1c(Cc2ccccc2)nc2ccccc21`, the AC50 was 17.8 µM (inconclusive) in [6], 31.6 µM (inconclusive) in [7] and 31.6 µM (inconclusive) in experiment [8].

In the case of `COc1ccccc1N1CCN(C(=O)C(C)NC(=O)c2cccc([N+](=O)[O-])c2)CC1` (centres undefined), the figures for the IC50 in experiment [1] and in experiment [2] were 2.72 µM (active) and 1.48 µM (active), respectively.

Consider `CCCOc1ccc(NC(=O)CC2C(=O)N(CC)C(=S)N2Cc2cccs2)cc1` (centres undefined), for which the IC50 is 12.4 µM (active) in experiment [1] and 10.9 µM (active) in [2].

Regarding `Nc1ccccc1-[n+]1c(-c2ccccc2)cc(-c2ccccc2)cc1-c1ccccc1.[O-][Cl+3]([O-])([O-])[O-]`, the EC50 in experiment [5] was 0.843 µM (active); in experiment [4], > 150 µM (inactive); in [9] it was > 60 µM (not active); in [10], 0.114 µM (active).

Consider `CC[n+]1c(/C=C/N(C)c2ccccc2)oc2ccccc21`, for which the EC50 in [5] is 3.58 µM (active); in experiment [4], > 150 µM (inactive); in experiment [9], 16.9 µM (active); in experiment [10] it was 0.258 µM (active).

Turning to `CN(CCC#N)C(=O)c1ccc(CNS(=O)(=O)c2ccc(F)cc2)cc1`, the results for the AC50 in [11], in experiment [6] and in [8] were 10 µM (inconclusive), 2 µM (inconclusive) and 0.112 µM (inconclusive), respectively.

On to `Cc1noc(C)c1NC(=O)Nc1cccc2c1O[C@H](CN(C)C(=O)NC1CCCCC1)[C@@H](C)CN([C@H](C)CO)C2=O`, for which the IC50 in [1] was 2.47 µM (active); in [2], 4.3 µM (active).

Turning to `CCCCC(=O)N/N=C/c1cc([N+](=O)[O-])ccc1N1CCOCC1`, the IC50 in experiment [1] was 4.56 µM (active); in experiment [2], 4.13 µM (active).

In the case of `CSc1nc(C)cc(SC(C(C)=O)C(=O)Nc2ccccc2)n1` (centres undefined), the AC50 in [11] was 1.58 µM (inconclusive); in experiment [6], 15.8 µM (inconclusive); in [8] it was 14.1 µM (inconclusive).

`COc1ccc(NC(=O)NCc2cccn2C)c(OC)c1`: the results for the AC50 in experiment [7] and in experiment [8] were 0.501 µM (inconclusive) and 22.4 µM (inconclusive), respectively.

Consider `COc1ccc(-c2nc(C#N)c(N3CCC(C(N)=O)CC3)o2)cc1OC`, for which the figures for the AC50 in experiment [6], in experiment [12] and in experiment [8] were 12.6 µM (inconclusive), 22.4 µM (inconclusive) and 39.8 µM (inconclusive), respectively.

As to `O=C(COc1ccc2ccccc2c1)N1c2ccccc2Sc2ccccc21`, in experiment [3], the CC50 is 26.8 µM (active).

With `CC(C)(C)N1C(=O)[C@H]2[C@@H](c3ccc(Br)cc3)N3C(=O)N(c4cccc(F)c4)C(=O)[C@@]3(Cc3ccccc3)[C@H]2C1=O`, the IC50 in experiment [1] was 19.8 µM (active); in experiment [2] it was 10.8 µM (active).

As to `O=C(NCCC1=CCCCC1)c1ccc(Cl)c([N+](=O)[O-])c1`, the IC50 in experiment [1] was 11.7 µM (active); in experiment [2], 9.92 µM (active).

Regarding `Nc1ccc(C#Cc2c(-c3ccsc3)oc3ccc(N4CCOCC4)cc23)cc1`, the CC50 in experiment [3] was 31.5 µM (active).

Consider `COc1ccc(-c2cc(C(=O)Nc3cc(OC)c(OC)c(OC)c3)no2)cc1OC`, for which the values for the AC50 in [12] and in experiment [8] were 39.8 µM (inconclusive) and 10 µM (inconclusive), respectively.

Consider `COc1ccc(C2SCC(=O)Nc3c2c(C)nn3C2CCOC(C)(C)C2)cc1` (centres undefined), for which the AC50 in [11] is 25.1 µM (inconclusive); in experiment [12] it was 39.8 µM (inconclusive); in experiment [8], 28.2 µM (inconclusive).

On to `O=C(CN1CCC(n2nnc3ccccc32)CC1)Nc1ccc2c(c1)CCC2`, for which, in experiment [3], the CC50 is 49.5 µM (active).

Regarding `CC(C)(C)Nc1nc(-c2ccc3c(c2)CCN3C(=O)C2CC2)cs1`, the CC50 in [3] is 25.2 µM (active).

Consider `O=C(CC1C[C@H](C(=O)N2CCOCC2)[C@@]2(CCC3CCCC3)c3[nH]c4ccccc4c3CCN2C1=O)NCc1cccc(C(F)(F)F)c1` (some centres undefined), for which the figures for the IC50 in experiment [1] and in experiment [2] were 4.98 µM (active) and 8.04 µM (active), respectively.

As to `CC(=O)c1cccc(-c2ccnc3c2CC(C(=O)Nc2cccc(OC(F)(F)F)c2)O3)c1` (centres undefined), the values for the IC50 in experiment [1] and in experiment [2] were 9.72 µM (active) and 6.27 µM (active), respectively.

Consider `N#CC1=C2SC=C(c3ccc(Br)cc3)N2CCCC1=O`, for which the EC50 was 0.864 µM (active) in experiment [13] and 16.9 µM (active) in experiment [14].

As for `Cc1cccc(N(C)C(=O)c2cc3cc4ccc(C)cc4nc3o2)c1`, the figures for the EC50 in [13] and in experiment [14] were 1.69 µM (active) and 14.3 µM (active), respectively.

For the compound `O=[N+]([O-])c1ccc(Cl)c(S(=O)(=O)Nc2ccc(-c3ccc(N4CCCC4)nn3)cc2)c1`, the IC50 in experiment [1] was 8.93 µM (active); in experiment [2] it was 11.3 µM (active).

`Cc1ccc(-c2nn(-c3ccccc3)cc2/C=N/O)cc1`: in [3], the CC50 is 27.9 µM (active). Further, the EC50 in [15], in experiment [16] and in experiment [17] was > 150 µM (not active) each time.

As to `O=S(=O)(Nc1nc(-c2ccccc2)cs1)c1cc(Cl)ccc1Cl`, the EC50 in experiment [5] is 1.8 µM (active); in experiment [4] it was > 160 µM (inactive).

Regarding `O=C(Nn1c(-c2ccc(Br)cc2)nc2ccccc2c1=O)c1ccc([N+](=O)[O-])cc1`, the IC50 in experiment [1] was 8.68 µM (active); in experiment [2], 7.74 µM (active).

On to `CC(C)CC(C(=O)OCC(=O)Nc1ncc(Cl)cc1Cl)N1C(=O)c2ccccc2C1=O` (centres undefined), for which the AC50 in experiment [6] was 11.2 µM (inconclusive); in experiment [8] it was 31.6 µM (inconclusive).
